Experimental data published in patent US11192878B2, “Piperidine-2,6-dione derivative and use thereof” (KOREA RESEARCH INSTITUTE OF CHEMICAL TECHNOLOGY, priority 2017, dated 2021).
Where a name gives a salt, the structure may show the parent alone.

The compounds below were run on NCI-H929 cells (assay: Cytotoxicity experiment (WST-1)). Conditions: Homo sapiens, 72 hours, WST-1, absorbance 450 nm.
Assay type: cell-based
Description: In order to confirm the effect of the compound of the present disclosure on cancer cells and normal cells, the cytotoxicity experiment was conducted as follows.
After seeding NCI-H929 cells on a 96-well plate so as to be 10,000 cells per each well, each compound was treated in a predetermined concentration. In 72 hours, WST-1 reagent was added, and in 1 hour, the absorbance was measured at 450 nm using spectramax spectrophotometer to measure the degree of cell death.

Compound | IC50 [µM]
Nc1cccc2nnn(C3CCC(=O)NC3=O)c(=O)c12 (stereo not drawn) [Chemical formula 7, 3-(5-amino-4-oxobenzo[d][1,2,3]triazin-3(4H)-yl)piperidine-2,6-dione] | < 1
O=C1CCC(n2nnc3cccc(F)c3c2=O)C(=O)N1 (stereo not drawn) [Chemical formula 8, 3-(5-fluoro-4-oxobenzo[d][1,2,3]triazin-3(4H)-yl)piperidine-2,6-dione] | 1 to 10
O=C1CCC(n2nnc3cccc([N+](=O)[O-])c3c2=O)C(=O)N1 (stereo not drawn) [Chemical formula 9, 3-(5-nitro-4-oxobenzo[d][1,2,3]triazin-3(4H)-yl)piperidine-2,6-dione] | 10 to 50
Cc1cccc2nnn(C3CCC(=O)NC3=O)c(=O)c12 (stereo not drawn) [Chemical formula 11, 3-(5-methyl-4-oxobenzo[d][1,2,3]triazin-3(4H)-yl)piperidine-2,6-dione] | 1 to 10
O=C1CCC(n2nnc3ccc(Cl)cc3c2=O)C(=O)N1 (stereo not drawn) [Chemical formula 12, 3-(6-chloro-4-oxobenzo[d][1,2,3]triazin-3(4H)-yl)piperidine-2,6-dione] | 10 to 50
COc1ccc2nnn(C3CCC(=O)NC3=O)c(=O)c2c1 (stereo not drawn) [Chemical formula 19, 3-(6-methoxy-4-oxobenzo[d][1,2,3]triazin-3(4H)-yl)piperidine-2,6-dione] | 10 to 50
CC(=O)Nc1cccc2nnn(C3CCC(=O)NC3=O)c(=O)c12 (stereo not drawn) [Chemical formula 20, N-(3-(2,6-dioxopiperidin-3-yl)-4-oxo-3,4-dihydrobenzo[d][1,2,3]triazin-5-yl)acetamide] | 10 to 50
O=C1CCC(n2nnc3c([N+](=O)[O-])cccc3c2=O)C(=O)N1 (stereo not drawn) [Chemical formula 21, 3-(8-nitro-4-oxobenzo[d][1,2,3]triazin-3(4H)-yl)piperidine-2,6-dione] | 10 to 50
CC(=O)Nc1ccc2nnn(C3CCC(=O)NC3=O)c(=O)c2c1 (stereo not drawn) [Chemical formula 23, N-(3-(2,6-dioxopiperidin-3-yl)-4-oxo-3,4-dihydrobenzo[d][1,2,3]triazin-6-yl)acetamide] | 10 to 50
Nc1cccc2c(=O)n(C3CCC(=O)NC3=O)ccc12 (stereo not drawn) [Chemical formula 24, 3-(5-amino-1-oxoisoquinolin-2(1H)-yl)piperidine-2,6-dione] | 10 to 50
O=C1CCC(n2nnc3ccccc3c2=O)C(=O)N1 (stereo not drawn) [Chemical formula 25, 3-(4-oxobenzo[d][1,2,3]triazin-3(4H)-yl)piperidine-2,6-dione] | 1 to 10
O=C1CCC(n2nnc3cc([N+](=O)[O-])ccc3c2=O)C(=O)N1 (stereo not drawn) [Chemical formula 26, 3-(7-nitro-4-oxobenzo[d][1,2,3]triazin-3(4H)-yl)piperidine-2,6-dione] | 10 to 50
O=C1CCC(n2nnc3ccc([N+](=O)[O-])cc3c2=O)C(=O)N1 (stereo not drawn) [Chemical formula 27, 3-(6-nitro-4-oxobenzo[d][1,2,3]triazin-3(4H)-yl)piperidine-2,6-dione] | 10 to 50
O=C1CCC(n2nnc3cccc(C(=O)O)c3c2=O)C(=O)N1 (stereo not drawn) [Chemical formula 29, 3-(2,6-dioxopiperidin-3-yl)-4-oxo-3,4-dihydrobenzo[d][1,2,3]triazin-5-carboxylic acid] | 10 to 50
CC1(n2nnc3cccc(N)c3c2=O)CCC(=O)NC1=O (stereo not drawn) [Chemical formula 30, 3-(5-amino-4-oxobenzo[d][1,2,3]triazin-3(4H)-yl)-3-methylpiperidine-2,6-dione] | 10 to 50
Nc1cccc2ccn(C3CCC(=O)NC3=O)c(=O)c12 (stereo not drawn) [Chemical formula 31, 3-(8-amino-1-oxoisoquinolin-2(1H)-yl)piperidine-2,6-dione] | 10 to 50
Cc1ccc(NC(=O)NCc2ccc3c(=O)n(C4CCC(=O)NC4=O)nnc3c2)cc1Cl (stereo not drawn) [Chemical formula 37, 1-(3-chloro-4-methylphenyl)-3-((3-(2,6-dioxopiperidin-3-yl)-4-oxo-3,4-dihydrobenzo[d][1,2,3]triazin-7-yl)methyl)urea] | < 1
Cc1ccc(NC(=O)NCc2ccc3nnn(C4CCC(=O)NC4=O)c(=O)c3c2)cc1Cl (stereo not drawn) [Chemical formula 38, 1-(3-chloro-4-methylphenyl)-3-((3-(2,6-dioxopiperidin-3-yl)-4-oxo-3,4-dihydrobenzo[d][1,2,3]triazin-6-yl)methyl)urea] | < 1
O=C1CCC(n2nnc3cccc(NC(=O)c4ccccc4)c3c2=O)C(=O)N1 (stereo not drawn) [Chemical formula 56, N-(3-(2,6-dioxopiperidin-3-yl)-4-oxo-3,4-dihydrobenzo[d][1,2,3]triazin-5-yl)benzamide] | 10 to 50
O=C1CCC(n2nnc3cccc(O)c3c2=O)C(=O)N1 (stereo not drawn) [Chemical formula 57, 3-(5-hydroxy-4-oxobenzo[d][1,2,3]triazin-3(4H)-yl)piperidine-2,6-dione] | < 1
CC(C)(C)C(=O)OCN1C(=O)CCC(n2nnc3cccc(N)c3c2=O)C1=O (stereo not drawn) [Chemical formula 58, (3-(5-amino-4-oxobenzo[d][1,2,3]triazin-3(4H)-yl)-2,6-dioxopiperidin-1-yl)methyl pivalate] | < 1
Nc1cccc2nnn(C3CCC(=O)N(COC(=O)c4ccccc4)C3=O)c(=O)c12 (stereo not drawn) [Chemical formula 59, (3-(5-amino-4-oxobenzo[d][1,2,3]triazin-3(4H)-yl)-2,6-dioxopiperidin-1-yl)methyl benzoate] | < 1
Nc1cccc2nnn(C3CCC(=O)N(COC(=O)C4CCNCC4)C3=O)c(=O)c12 (stereo not drawn) [Chemical formula 60, (3-(5-amino-4-oxobenzo[d][1,2,3]triazin-3(4H)-yl)-2,6-dioxopiperidin-1-yl)methyl piperidine-4-carboxylate hydrochloride] | < 1
Nc1cccc2nnn(C3CCC(=O)N(COC(=O)[C@H]4CCCN4)C3=O)c(=O)c12 (stereo partly drawn) [Chemical formula 61, (3-(5-amino-4-oxobenzo[d][1,2,3]triazin-3(4H)-yl)-2,6-dioxopiperidin-1-yl)methyl D-prolinate hydrochloride] | < 1
CC[C@H](C)[C@H](N)C(=O)OCN1C(=O)CCC(n2nnc3cccc(N)c3c2=O)C1=O (stereo partly drawn) [Chemical formula 62, (3-(5-amino-4-oxobenzo[d][1,2,3]triazin-3(4H)-yl)-2,6-dioxopiperidin-1-yl)methyl L-isoleucinate hydrochloride] | < 1
CCCC(=O)OCN1C(=O)CCC(n2nnc3cccc(N)c3c2=O)C1=O (stereo not drawn) [Chemical formula 63, (3-(5-amino-4-oxobenzo[d][1,2,3]triazin-3(4H)-yl)-2,6-dioxopiperidin-1-yl)methyl butyrate] | < 1
Nc1ccc2nnn(C3CCC(=O)NC3=O)c(=O)c2c1 (stereo not drawn) [Chemical formula 65, 3-(6-amino-4-oxobenzo[d][1,2,3]triazin-3(4H)-yl)piperidine-2,6-dione] | 10 to 50
